Test results as given in US20240327791A1, “METHODS OF T CELL PRODUCTION” (Adaptimmune Limited, priority 2021, published 2024).
Entries after “also recorded” stand apart in the source; their conditions may differ.

How the values were obtained:
Format in all cases: cell-based
[1] = test system: haematopoietic progenitor cells (iPSC derived CD34+ cells); assay: Viability and proliferation of HPCs / iPro T cells cultured with pyrimidoindole compound (cell counts, NC-250); conditions: for viability of cells: UM729 0.25 μM to 1.0 μM (up to 1 μM)
Procedure: iPSC cells (HCP1324_c1A12) were differentiated to day 16, using our in-house Proprietary media. HPC (CD34+ cells) were isolated using MACS and a cryopreserved bank of these cells was created for further differentiation into iT-Cells. HPC were then thawed and seeded at 5000 cells per cm^2 in 1 ml of lymphoid progenitor (stage 4; LP) media on the standard SCT's coating (2.5 μL/cm^2). UM729 was added to the culture media in a range of concentrations from 0.25 μM-5 μM. On day 3, 1 mL of LP media with the required concentration of UM729 was added and further demi-media changes were carried out every 3 days, with the required media concentration. Every 14 days cells were removed from culture and counted using NC-250. The cells were then replated on to fresh SCT matrix and UM729 was added to the media at the relevant concentration. Cells were removed from the cultures after 21, 35 and 42 days and phenotyped using the panel in Table 1. At these timepoints cells were either continued on in lymphoid progenitor media with the relevant UM729 concentrations or transferred into T cell maturation conditions. On day 21, 35 and 42 of culture iPro T Cells were seeded onto fresh SCT matrix (2.5 μl/cm^2) at a density of 250,000 cells per cm^2. Cells were cultured in T-Cell maturation media either with or without UM729 (0.25-5 μM), with demi-media changes every 3 days for 2 weeks. After 2 weeks of maturation the cells were counted using the NC-250 and phenotyped by flow cytometry using the panel in Table 1.

iPro T cells [2] = assay: Expansion of iPro T cells in stage 4 medium; conditions: UM729 0.25 μM to 1.0 μM in stage 4 medium, up to 42 days
Procedure: (§1) HPC were then thawed and seeded at 5000 cells per cm^2 in 1 ml of lymphoid progenitor (stage 4; LP) media on the standard SCT's coating (2.5 μL/cm^2). UM729 was added to the culture media in a range of concentrations from 0.25 μM-5 μM. On day 3, 1 mL of LP media with the required concentration of UM729 was added and further demi-media changes were carried out every 3 days, with the required media concentration. Every 14 days cells were removed from culture and counted using NC-250. The cells were then replated on to fresh SCT matrix and UM729 was added to the media at the relevant concentration. Cells were removed from the cultures after 21, 35 and 42 days and phenotyped using the panel in Table 1. At these timepoints cells were either continued on in lymphoid progenitor media with the relevant UM729 concentrations or transferred into T cell maturation conditions.

iPro T cells [3] = assay: T cell maturation in stage 5 medium after stage 4 pre-treatment, flow cytometry; conditions: pre-treated with UM729 21 days in stage 4 medium, then 14 days stage 5 medium without UM729
Procedure: On day 21, 35 and 42 of culture iPro T Cells were seeded onto fresh SCT matrix (2.5 μl/cm^2) at a density of 250,000 cells per cm^2. Cells were cultured in T-Cell maturation media either with or without UM729 (0.25-5 μM), with demi-media changes every 3 days for 2 weeks. After 2 weeks of maturation the cells were counted using the NC-250 and phenotyped by flow cytometry using the panel in Table 1. On the day of the assay, the cells were counted, washed twice in FACS Buffer and phenotyped by flow cytometry for T-cell markers.

[4] = test system: haematopoietic progenitor cells (iPSC derived CD34+ cells); assay: Flow cytometry phenotyping of HPCs differentiated in lymphoid progenitor (stage 4) medium with pyrimidoindole compound
Procedure: as §1, with “conditions. On the day of the assay, the cells were counted, washed twice in FACS Buffer and phenotyped by flow cytometry for T-cell markers.” for “conditions.”

iPro T cells [5] = assay: Recovery of iPro T cells from freeze/thaw and culture in stage 5 medium; conditions: pre-treated with UM729 at 1 μM in stage 4 medium; 7 days in stage 5 medium
[6] = UM729 5.0 μM or higher, 21 days
[7] = UM729 0.25 μM to 1.0 μM in stage 4 media, 21 days
[8] = UM729 0.25 μM to 1.0 μM, 21 days
[9] = UM729 0.25 μM to 1.0 μM, 35 days (UM729 also in stage 5 cultures)

Compound: COC(=O)c1ccc2c(c1)[nH]c1ncnc(NCCCN3CCCCC3)c12 [UM729, methyl 4-(3-piperidin-1-ylpropylamino)-9H-pyrimido[4,5-b]indole-7-carboxylate]
- viability of cells ([1]; 21 days): maintain viability; also recorded: not to affect the viability
- viability of cells ([1]; 35 days): not to affect the viability; also recorded: maintain viability
- proliferation of total cells [1, 6]: reduced or ceases; also recorded: ceased
- viability of total cells [1, 6]: reduced or ceases; also recorded: comparably low
- cytotoxic effects ([1]; UM729 at concentrations of 5 μM and above): cytotoxic effects were observed
- expansion of iPro T cells (FIG. 9) (iPro T cells [2]): supported over 42 days; also recorded: greatly enhances the expansion of iProT cells
- differentiation to CD4+CD8+ double positive T cells after removal of UM729 (FIG. 10) (iPro T cells [3]): found to be removed; also recorded: will become CD4+CD8+ double positive
- differentiation into / yield of CD7+CD5+ iPro T cells (FIG. 4A) [4, 7]: promotes differentiation into iProT cells; also recorded: increase the yield
- percentage of CD7+CD5+ iPro T cells (FIG. 4B) [4, 7]: enriches the percentage of iProT cells; also recorded: enrich the percentage
- fraction of CD8+CD4+ double positive cells (further differentiation to DP T cells) ([4]; UM729 0.25 μM to 1.0 μM in stage 4 medium, 21 days): decreases the fraction of CD8+CD4+ double positive cells; also recorded: inhibited further differentiation
- lymphoid fraction of the cells [4, 8]: increases the lymphoid fraction
- myeloid fraction of the cells (myeloid cellular contamination) [4, 8]: reduces the myeloid fraction; also recorded: reduce this cellular contamination in a dose dependent manner
- differentiation into / percentage of CD7+CD5+ iPro T cells (FIG. 7) [4, 9]: increasing; also recorded: promotes differentiation into iProT cells
- fraction / development of CD8+CD4+ double positive cells (FIG. 8) [4, 9]: inhibited in a dose dependent manner; also recorded: decreases the fraction of CD8+CD4+ double positive cells
- cell proliferation after culture in stage 5 medium (FIG. 12B) (iPro T cells [5]): increased cell proliferation
- viability after culture in stage 5 medium (FIG. 12A) (iPro T cells [5]): higher viability
